Columns and labels:
Test in all cases: Cell proliferation assay (Alamar Blue)
Type in all cases: cell-based
HLE = HLE liver cancer cell line; 6 days culture
Outline: (§1)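 Compounds were added 4 h after seeding and left on the cells for 6 days. Nine concentrations spanning 3.16-fold dilutions from a top of 100 or 30 μM were run in duplicate. Fluorescence after AlamarBlue gave inhibition rates, fitted for IC50.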

NCI-H1703 = NCI-H1703 (lung cancer cells); 6 days culture
Outline: as §1

SNU475 = SNU475 liver cancer cell line; 6 days culture
Outline: as §1

SNU387 = SNU387 liver cancer cell line; 6 days culture
Outline: as §1

NCI-H1648 = NCI-H1648 tumor cell line; 6 days culture
Outline: as §1

NCI-H526 = NCI-H526 tumor cell line; 6 days culture
Outline: as §1

HEPG2 = HEPG2 liver cancer cell line; 6 days culture
Outline: as §1

Li-7 = Li-7 liver cancer cell line; 6 days culture
Outline: as §1

KM12 = KM12 tumor cell line; 6 days culture
Outline: as §1

HT55 = HT55 tumor cell line; 6 days culture
Outline: as §1

JHH2 = JHH2 liver cancer cell line; 6 days culture
Outline: as §1

CCRF-CEM = CCRF-CEM tumor cell line; 6 days culture
Outline: as §1

DU145 = DU145 tumor cell line; 6 days culture
Outline: as §1

MFM-223 = MFM-223 tumor cell line; 6 days culture
Outline: as §1

JHH6 = JHH6 liver cancer cell line; 6 days culture
Outline: as §1

SNU354 = SNU354 liver cancer cell line; 6 days culture
Outline: as §1

HLF = HLF liver cancer cell line; 6 days culture
Outline: as §1

HCCLM3 = HCCLM3 tumor cell line; 6 days culture
Outline: as §1

K562 = K562 tumor cell line; 6 days culture
Outline: as §1

AN3CA = AN3CA tumor cell line; 6 days culture
Outline: as §1

KASUMI-1 = KASUMI-1 (leukemia cells); 6 days culture
Outline: as §1

Hep3B2.1-7 = Hep3B2.1-7 liver cancer cell line; 6 days culture
Outline: as §1

NCI-H2170 = NCI-H2170 tumor cell line; 6 days culture
Outline: as §1

MG63 = MG63 tumor cell line; 6 days culture
Outline: as §1

SK-HEP-1 = SK-HEP-1 liver cancer cell line; 6 days culture
Outline: as §1

HUH1 = HUH1 liver cancer cell line; 6 days culture
Outline: as §1

IC50 (NCI-H1703) | IC50 (SNU475) | IC50 (SNU387) | IC50 (NCI-H1648) | IC50 (NCI-H526) | IC50 (HEPG2) | IC50 (CCRF-CEM) | IC50 (DU145) | IC50 (SNU354) | IC50 (HCCLM3) | IC50 (K562) | SMILES | IC50 (HLE) | IC50 (Li-7) | IC50 (KM12) | IC50 (HT55) | IC50 (JHH2) | IC50 (MFM-223) | IC50 (JHH6) | IC50 (HLF) | IC50 (AN3CA) | also measured
0.11 µM | > 100 µM | > 100 µM | > 100 µM | > 100 µM | 9.53 µM | > 100 µM | > 100 µM | > 100 µM | > 100 µM | > 100 µM | Cc1ccc(F)c(NC(=O)Nc2ccc(-c3cccc4[nH]nc(NC(=O)CCCCCCCCCCCNC(=O)C[C@H](N)C(=O)N[C@@H](CCC(=O)O)C(=O)O)c34)cc2)c1 [Compound 7] | 88.3 µM | > 100 µM | 79.1 µM | > 100 µM | > 100 µM | 88.3 µM | > 100 µM | 72.6 µM | 3.84 µM | IC50 (KASUMI-1): 0.23 µM; IC50 (Hep3B2.1-7): 40.4 µM; IC50 (NCI-H2170): 48 µM; IC50 (MG63): > 100 µM; IC50 (SK-HEP-1): > 100 µM; IC50 (HUH1): > 100 µM
0.83 µM | > 100 µM | > 100 µM | > 100 µM | > 100 µM | 30.1 µM | > 100 µM | > 100 µM | > 100 µM | > 100 µM | > 100 µM | Cc1ccc(F)c(NC(=O)Nc2ccc(-c3cccc4[nH]nc(NC(=O)CCCCCNC(=O)C[C@H](N)C(=O)O)c34)cc2)c1 [Compound 11] | > 100 µM | > 100 µM | > 100 µM | > 100 µM | > 100 µM | > 100 µM | > 100 µM | 95.7 µM | 17.4 µM | IC50 (KASUMI-1): 1.09 µM; IC50 (Hep3B2.1-7): > 100 µM; IC50 (NCI-H2170): > 100 µM; IC50 (MG63): > 100 µM; IC50 (SK-HEP-1): > 100 µM; IC50 (HUH1): > 100 µM

SMILES | IC50 (NCI-H1703) | IC50 (SNU475) | IC50 (SNU387) | IC50 (NCI-H1648) | IC50 (NCI-H526) | IC50 (HEPG2) | IC50 (CCRF-CEM) | IC50 (DU145) | IC50 (SNU354) | IC50 (HCCLM3) | IC50 (K562) | IC50 (HLE) | IC50 (Li-7) | IC50 (KM12) | IC50 (HT55) | IC50 (JHH2) | IC50 (MFM-223) | IC50 (JHH6) | IC50 (HLF) | IC50 (AN3CA) | also measured
Cc1ccc(F)c(NC(=O)Nc2ccc(-c3cccc4[nH]nc(NC(=O)CCCCCCCCCCCNC(=O)C[C@H](N)C(=O)N[C@@H](CCC(=O)N[C@@H](CCC(=O)N[C@@H](CCC(=O)N[C@@H](CCC(=O)N[C@@H](CCC(=O)N[C@@H](CCC(=O)N[C@@H](CCC(=O)N[C@@H](CCC(=O)N[C@@H](CCC(=O)O)C(=O)O)C(=O)O)C(=O)O)C(=O)O)C(=O)O)C(=O)O)C(=O)O)C(=O)O)C(=O)O)c34)cc2)c1 [Compound 9] | 0.35 µM | > 100 µM | > 100 µM | > 100 µM | > 100 µM | 33.6 µM | > 100 µM | > 100 µM | > 100 µM | > 100 µM | > 100 µM | > 100 µM | > 100 µM | > 100 µM | > 100 µM | > 100 µM | > 100 µM | > 100 µM | > 100 µM | 10.3 µM | IC50 (KASUMI-1): 0.87 µM; IC50 (Hep3B2.1-7): > 100 µM; IC50 (NCI-H2170): > 100 µM; IC50 (MG63): > 100 µM; IC50 (SK-HEP-1): > 100 µM; IC50 (HUH1): > 100 µM
